Data as given in patent publication US20110098267A1, “TOPICAL FORMULATIONS FOR THE TREATMENT OF PSORIASIS” (Synta Pharmaceuticals Corporation, priority 2008, published 2011).
Entries after “also recorded” stand apart in the source; their conditions may differ.

Tests used:
IL-10 = assay: TaqMan RT-PCR gene expression in skin biopsies, clinical psoriasis study; type: in vivo, human; conditions: lesional psoriatic skin biopsies of patients, week 2 vs pre-treatment (wk0), oral dosing
Experimental: (§1) A multicenter, randomized, open-label, multiple oral dose outpatient study was done in patients with moderate to severe chronic plaque psoriasis. Patients received Compound 5021 mg or 35 mg orally twice daily (BID), 35 mg or 70 mg orally once per day (QD). Patients remained on study medication for a period of 12 weeks.
(§2) Lesional and nonlesional skin biopsies were collected from adults with chronic plaque-type psoriasis before and after treatment with Compound 50. The biopsies were processed using the QIAGEN RNeasy kit. Using a rotor-stator tissue homogenizer (saw-tooth rotor; PowerGen 700), frozen specimens were homogenized in buffer (RLT; QIAGEN) for 30-60 s and spun in a microcentrifuge for 3 min at room temperature to pellet debris. The supernatant was loaded onto a QIAGEN minicolumn and spun for 15s at high speed. A series of washes and DNase digestion was followed by final elution of RNA from the column. RNA was quantitated by UV spectrophotometry. The primers and probes for the TaqMan RT-PCR assays for IL-12/23 p40, IL-23 p19, and IL-10 were generated using the Primer Express algorithm version 1.0 from published sequences (National Center for Biotechnology Information). All primers and probes were synthesized by Applied Biosystems-PerkinElmer. RT-PCR reactions were performed according to the manufacturer's directions (EZ PCR Core Reagents; TaqMan and Applied Biosystems). The human acidic ribosomal protein gene (hARP), a housekeeping gene, was used to normalize each sample and each gene.
(§3) Gene expression levels at week 2 (wk2) were compared to pre-treatment levels in lesional psoriatic skin (wk0). […] In the same biopsy samples, an increase in mRNA IL-10, an anti-inflammatory cytokine, was observed (FIG. 1C).

IL-12/23 p40 = assay: as above; type: in vivo, human; conditions: lesional psoriatic skin biopsies of patients, week 2 vs pre-treatment (wk0), oral dosing, normalized to hARP
Experimental: as §1, §2, §3

IL-23 p19 = assay: as above; type: in vivo, human; conditions: lesional psoriatic skin biopsies of patients, week 2 vs pre-treatment (wk0), oral dosing, normalized to hARP
Experimental: as §1, §2, §3

[1] = tested on: CD11c+ cells (dendritic cells); assay: Immunohistochemistry cell counts in skin biopsies, clinical psoriasis study; type: in vivo, human
Experimental: as §1
(§4) Tissue sections of skin biopsies were stained with hematoxylin (Fisher) and eosin (Shandon, Pittsburgh) and purified mouse anti-human mAbs to K16 (Sigma), CD3 (Becton Dickinson), CD11c (BD Pharmingen). Biotin-labeled horse anti-mouse antibody (Vector Laboratories) was amplified with avidin-biotin complex (Vector Laboratories) and developed with chromogen 3-amino-9-ethylcarbazole (Sigma Aldrich). Epidermal thickness measures were computed by using National Institutes of Health software (NIH IMAGE 6.1), and positive cells were counted manually by using computer-assisted image analysis.

CD3+ cells = assay: as above; type: in vivo, human; conditions: week 12, patients receiving 70 mg once a day
Experimental: as §1, §4

[2] = API-excipient compatibility, 1 month at 40° C. and 60° C.; type: physicochemical; conditions: for % Deg. w/Main peak: 1 month 40° C.
Experimental: For the pre-formulation work Compound 50 was mixed with varying ratios of excipients commonly encountered in topical formulations.
The Compound 50 Pre-Formulation Studies began with the addition of each individual excipient to 500 mg of the Active Pharmaceutical Ingredient (API). Table I below explains the detail ratio between each excipient and API used for this study.
The samples, once prepared in scintillation vials, were kept at 40° C. and 60° C. for over one month. The samples were analyzed by the method (not validated) developed by the analytical support group.
The results in Tables III-V were analyzed with respect to Compound 50 standard to calculate % recovery of API in the presence of each excipient. […] Similar results in table V for samples 5-60° C., 6-60° C., 7-60° C., 8-60° C., 10-60° C., 17-60° C., and 18-60° C. were obtained which needs to be further analyzed.

[3] = Water solubility (statement); type: physicochemical
CD83 and CD11c = conditions: responders of Alefacept therapy; cited from earlier work
[4] = week 12, patients receiving 70 mg once a day

Molecule | IL-10 mRNA (IL-10) | IL-12/23 p40 gene expression (IL-12/23 p40) | IL-23 p19 gene expression (IL-23 p19) | CD11c+ cells in epidermis count ([1]; all nonresponders, week 12) | decrease in CD11c+ cells in epidermis ([1]; all responder patients (histological improvement at week 12)) [%] | CD11c+ cells in dermis (CD11DER) [1, 4] | CD11c+ cells in epidermis (CD11EPI) [1, 4] | CD3+ cells in dermis (CD3DER) (CD3+ cells) | CD3+ cells in epidermis (CD3EPI) (CD3+ cells) | % Deg. w/Main peak ([2]; with Methylparaben, 1st impurity peak RRT 0.52) [%] | w/Main Peak ([2]; with Methylparaben, 1 month 60° C., impurity peak 0.51) [%] | w/Main Peak ([2]; with PEG-300, 1 month 60° C., impurity peak 0.60) [%] | w/Main Peak ([2]; with PEG-400, 1 month 60° C., impurity peak 0.60) [%] | w/Main Peak ([2]; with Polysorbate 80, 1 month 60° C., impurity peak 0.60) [%] | w/Main Peak ([2]; with Propylene Glycol, 1 month 60° C., impurity peak 0.60) [%] | % Deg. w/Main peak ([2]; with Propylparaben, 1st impurity peak RRT 0.78) [%] | w/Main Peak ([2]; with Propylparaben, 1 month 60° C., impurity peak 0.78) [%] | w/Main Peak ([2]; with Sorbitan Monooleate, 1 month 60° C., impurity peak 0.59) [%] | water solubility [3] | CD83 and CD11c immunostaining (CD83 and CD11c)
Cc1cccc(/C=N/Nc2cc(N3CCOCC3)nc(OCCc3ccccn3)n2)c1 [Compound 50, N-(3-Methyl-benzylidene)-N′-[6-morpholin-4-yl-2-(2-pyridin-2-yl-ethoxy)-pyrimidin-4-yl]-hydrazine] | increase | reduced; also recorded: decrease | reduced; also recorded: decrease | no significant reduction | ~100 | significant but less pronounced decreases | marked decrease | significant but less pronounced decreases | significant but less pronounced decreases | 0.34 | 13.75 | 0.51 | 1.87 | 1.30 | 0.11 | 8.96 | 6.37 | 8.25 | not water soluble | 
Alefacept |  |  |  |  |  |  |  |  |  |  |  |  |  |  |  |  |  |  |  | decreases
